Experimental data: patent US20240189269A1, “PHARMACEUTICAL COMPOSITION FOR SUPPRESSING TMPRSS2 EXPRESSION” (Tokyo Institute of Technology, priority 2021, published 2024)

Tested on: ACE2
Assay: Western blot analysis of amount of ACE2 protein expressed in HepG2 cells
Format: cell-based, human
Settings: compared to control (untreated)
Experimental: (i) Human liver cancer-derived cell strain HepG2 was cultured for 2 days with Dulbecco's modified Eagle medium (DMEM) comprising 10% fetal bovine serum (FBS) under 5% CO2.
(ii) After 2 days, 5-aminolevulinic acid hydrochloride salt (ALA) was supplemented to the DMEM comprising FBS to a final concentration of 1 mM, and the cells of (i) were cultured in said medium at 37° C. for 48 hours. Note that those without any supplements was set as the control.
(iii) After 48 hours, the cell supernatant was discarded, the cells were washed with PBS, and then Lysis buffer A (+) (50 mM Tris-HCl (pH 7.4), 20 mM N-methylmaleimide, 1 mM DTT, 1% (v/v) Triton X-100, and Protease inhibitor cocktail) was added, and the cell lysate was collected. Homogenization and centrifugation (3,000 rpm, 10 minutes, 4 °C) were then performed, and the residue was removed. A part of the cell lysate collected was quantified for proteins with the Bradford method, and the remainder was mixed with SDS sample buffer (50 mM Tris-HC1, pH 6.8, 2% SDS, 2.5% mercaptoethanol, 10% glycerol, 0.01% bromophenol blue), and stored frozen at −30° C. The prepared sample was subjected to 7.5% SDS-polyacrylamide electrophoresis, the 7.5% SDS-polyacrylamide gel after electrophoresis was transferred to a membrane, and the transfer was confirmed with
Ponceau S solution. After the transfer was confirmed, Western blot analysis employing rabbit anti-human ACE2 antibody (Abcom, ab108252) and HRP-labeled anti-rabbit IgG secondary antibody (Cell Signaling Technology, 7074S) was performed by conventional means.
As internal standards, each sample was subjected to 7.5% SDS-polyacrylamide electrophoresis, the 7.5% SDS-polyacrylamide gel after electrophoresis was transferred to a membrane, and the transfer was confirmed with Ponceau S solution. After the transfer was confirmed, Western blot analysis employing mouse anti-human actin antibody (MP biomedicals, 691001) and HRP-labeled anti-mouse IgG secondary antibody (Cell Signaling Technology, 7076S) was performed by conventional means. […]

In the case of `Cl.NCC(=O)CCC(=O)O` [ALA, 5-aminolevulinic acid hydrochloride salt], the “amount of ACE2 protein expressed” value (Experiment 1, ALA 1 mM, 48 hours) is reported as “significantly reduced” and the “amount of ACE2 protein expressed” value (Experiment 2, ALA 1 mM) is reported as “reduced”.

With sodium ferrous citrate [SFC] the “amount of ACE2 protein expressed” value (Experiment 2, SFC only 0.5 mM) was “no reduction”.
